PubChem BioAssay (NCI)
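Each compound was tested at five concentrations against cells in 96-well plates for 48 hours. Definition used: TGI = concentration required for complete inhibition of growth.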

Assays:
Experiment in all cases: growth of human tumour cells (NCI), 48 h
T-47D breast = tested on: T-47D breast
SK-MEL-2 melanoma = tested on: SK-MEL-2 melanoma
UO-31 renal = tested on: UO-31 renal
OVCAR-8 ovarian = tested on: OVCAR-8 ovarian
CCRF-CEM leukemia = tested on: CCRF-CEM leukemia
DU-145 prostate = tested on: DU-145 prostate
K-562 leukemia = tested on: K-562 leukemia
UACC-62 melanoma = tested on: UACC-62 melanoma
ACHN renal = tested on: ACHN renal
SF-268 CNS = tested on: SF-268 CNS
SF-539 CNS = tested on: SF-539 CNS
PC-3 prostate = tested on: PC-3 prostate
SF-295 CNS = tested on: SF-295 CNS
NCI-H23 lung = tested on: NCI-H23 lung
786-0 renal = tested on: 786-0 renal
HOP-62 NSCLC = tested on: HOP-62 NSCLC
HCT-116 colon = tested on: HCT-116 colon
SNB-75 CNS = tested on: SNB-75 CNS
TK-10 renal = tested on: TK-10 renal
SK-MEL-28 melanoma = tested on: SK-MEL-28 melanoma
IGROV1 ovarian = tested on: IGROV1 ovarian
RXF 393 renal = tested on: RXF 393 renal
COLO 205 colon = tested on: COLO 205 colon
MDA-N = tested on: MDA-N
U251 CNS = tested on: U251 CNS
UACC-257 melanoma = tested on: UACC-257 melanoma
SK-OV-3 ovarian = tested on: SK-OV-3 ovarian
BT-549 breast = tested on: BT-549 breast
HS 578T breast = tested on: HS 578T breast
SR leukemia = tested on: SR leukemia
SN12C renal = tested on: SN12C renal
HT29 colon = tested on: HT29 colon
M14 melanoma = tested on: M14 melanoma
HOP-92 NSCLC = tested on: HOP-92 NSCLC
RPMI-8226 leukemia = tested on: RPMI-8226 leukemia
EKVX NSCLC = tested on: EKVX NSCLC
A498 renal = tested on: A498 renal
OVCAR-3 ovarian = tested on: OVCAR-3 ovarian
NCI-H226 lung = tested on: NCI-H226 lung
LOX IMVI melanoma = tested on: LOX IMVI melanoma
A549 NSCLC = tested on: A549 NSCLC
MDA-MB-435 = tested on: MDA-MB-435
SNB-19 CNS = tested on: SNB-19 CNS
SK-MEL-5 melanoma = tested on: SK-MEL-5 melanoma
MOLT-4 leukemia = tested on: MOLT-4 leukemia
MALME-3M melanoma = tested on: MALME-3M melanoma
KM12 colon = tested on: KM12 colon
OVCAR-4 ovarian = tested on: OVCAR-4 ovarian
OVCAR-5 ovarian = tested on: OVCAR-5 ovarian
MDA-MB-231 breast = tested on: MDA-MB-231 breast
HCT-15 colon = tested on: HCT-15 colon
SW-620 colon = tested on: SW-620 colon
NCI/ADR-RES ovarian = tested on: NCI/ADR-RES ovarian
NCI-H460 lung = tested on: NCI-H460 lung
MCF7 breast = tested on: MCF7 breast
HL-60(TB) leukemia = tested on: HL-60(TB) leukemia
CAKI-1 renal = tested on: CAKI-1 renal
NCI-H522 lung = tested on: NCI-H522 lung
HCC-2998 colon = tested on: HCC-2998 colon

O=C(N/S(=N/S(=O)(=O)c1ccc(Br)cc1)C(Cl)(Cl)Cl)c1ccccc1 (centres undefined)
TGI (T-47D breast): > 100 µM
TGI (SK-MEL-2 melanoma): > 100 µM
TGI (UO-31 renal): > 100 µM
TGI (OVCAR-8 ovarian): > 100 µM
TGI (CCRF-CEM leukemia): > 100 µM
TGI (DU-145 prostate): > 100 µM
TGI (K-562 leukemia): > 100 µM
TGI (UACC-62 melanoma): > 100 µM
TGI (ACHN renal): > 100 µM
TGI (SF-268 CNS): > 100 µM
TGI (SF-539 CNS): > 100 µM
TGI (PC-3 prostate): > 100 µM
TGI (SF-295 CNS): > 100 µM
TGI (NCI-H23 lung): > 100 µM
TGI (786-0 renal): > 100 µM
TGI (HOP-62 NSCLC): > 100 µM
TGI (HCT-116 colon): > 100 µM
TGI (SNB-75 CNS): > 100 µM
TGI (TK-10 renal): > 100 µM
TGI (SK-MEL-28 melanoma): > 100 µM
TGI (IGROV1 ovarian): > 100 µM
TGI (RXF 393 renal): > 100 µM
TGI (COLO 205 colon): > 100 µM
TGI (MDA-N): > 100 µM
TGI (U251 CNS): > 100 µM
TGI (UACC-257 melanoma): > 100 µM
TGI (SK-OV-3 ovarian): > 100 µM
TGI (BT-549 breast): > 100 µM
TGI (HS 578T breast): > 100 µM
TGI (SR leukemia): > 100 µM
TGI (SN12C renal): > 100 µM
TGI (HT29 colon): > 100 µM
TGI (M14 melanoma): > 100 µM
TGI (HOP-92 NSCLC): 82 µM
TGI (RPMI-8226 leukemia): > 100 µM
TGI (EKVX NSCLC): > 100 µM
TGI (A498 renal): > 100 µM
TGI (OVCAR-3 ovarian): > 100 µM
TGI (NCI-H226 lung): > 100 µM
TGI (LOX IMVI melanoma): > 100 µM
TGI (A549 NSCLC): > 100 µM
TGI (MDA-MB-435): > 100 µM
TGI (SNB-19 CNS): > 100 µM
TGI (SK-MEL-5 melanoma): > 100 µM
TGI (MOLT-4 leukemia): > 100 µM
TGI (MALME-3M melanoma): > 100 µM
TGI (KM12 colon): > 100 µM
TGI (OVCAR-4 ovarian): > 100 µM
TGI (OVCAR-5 ovarian): > 100 µM
TGI (MDA-MB-231 breast): > 100 µM
TGI (HCT-15 colon): > 100 µM
TGI (SW-620 colon): > 100 µM
TGI (NCI/ADR-RES ovarian): > 100 µM
TGI (NCI-H460 lung): > 100 µM
TGI (MCF7 breast): > 100 µM

COC(OC)(c1ccccc1)C(Br)Br
TGI (T-47D breast): > 100 µM
TGI (SK-MEL-2 melanoma): > 100 µM
TGI (UO-31 renal): > 100 µM
TGI (OVCAR-8 ovarian): > 100 µM
TGI (CCRF-CEM leukemia): 42.6 µM
TGI (DU-145 prostate): > 100 µM
TGI (K-562 leukemia): 71.6 µM
TGI (UACC-62 melanoma): > 100 µM
TGI (ACHN renal): > 100 µM
TGI (SF-268 CNS): > 100 µM
TGI (PC-3 prostate): > 100 µM
TGI (SF-295 CNS): > 100 µM
TGI (NCI-H23 lung): > 100 µM
TGI (786-0 renal): 69.4 µM
TGI (HOP-62 NSCLC): > 100 µM
TGI (HCT-116 colon): 37.2 µM
TGI (SNB-75 CNS): > 100 µM
TGI (SK-MEL-28 melanoma): > 100 µM
TGI (IGROV1 ovarian): > 100 µM
TGI (COLO 205 colon): 39.2 µM
TGI (MDA-N): > 100 µM
TGI (U251 CNS): > 100 µM
TGI (UACC-257 melanoma): > 100 µM
TGI (SK-OV-3 ovarian): > 100 µM
TGI (HL-60(TB) leukemia): > 100 µM
TGI (BT-549 breast): > 100 µM
TGI (HS 578T breast): > 100 µM
TGI (SR leukemia): 70.6 µM
TGI (SN12C renal): > 100 µM
TGI (HT29 colon): > 100 µM
TGI (CAKI-1 renal): 48.5 µM
TGI (M14 melanoma): 37.8 µM
TGI (RPMI-8226 leukemia): > 100 µM
TGI (EKVX NSCLC): > 100 µM
TGI (A498 renal): > 100 µM
TGI (OVCAR-3 ovarian): > 100 µM
TGI (NCI-H226 lung): > 100 µM
TGI (LOX IMVI melanoma): > 100 µM
TGI (A549 NSCLC): > 100 µM
TGI (MDA-MB-435): > 100 µM
TGI (NCI-H522 lung): 33 µM
TGI (SNB-19 CNS): > 100 µM
TGI (SK-MEL-5 melanoma): > 100 µM
TGI (MOLT-4 leukemia): 74.2 µM
TGI (MALME-3M melanoma): 43.8 µM
TGI (KM12 colon): > 100 µM
TGI (OVCAR-5 ovarian): > 100 µM
TGI (MDA-MB-231 breast): > 100 µM
TGI (HCC-2998 colon): > 100 µM
TGI (HCT-15 colon): 42.4 µM
TGI (SW-620 colon): 34.5 µM
TGI (NCI/ADR-RES ovarian): > 100 µM
TGI (NCI-H460 lung): > 100 µM
TGI (MCF7 breast): > 100 µM
